The structures appear in SMILES notation.

The target of the first experiment is T1, hM1 (Homo sapiens, UniProt P11229).
T1 construct: expressed in transfected cells; host or cells: CHO
T1 sequence (P11229 1-460): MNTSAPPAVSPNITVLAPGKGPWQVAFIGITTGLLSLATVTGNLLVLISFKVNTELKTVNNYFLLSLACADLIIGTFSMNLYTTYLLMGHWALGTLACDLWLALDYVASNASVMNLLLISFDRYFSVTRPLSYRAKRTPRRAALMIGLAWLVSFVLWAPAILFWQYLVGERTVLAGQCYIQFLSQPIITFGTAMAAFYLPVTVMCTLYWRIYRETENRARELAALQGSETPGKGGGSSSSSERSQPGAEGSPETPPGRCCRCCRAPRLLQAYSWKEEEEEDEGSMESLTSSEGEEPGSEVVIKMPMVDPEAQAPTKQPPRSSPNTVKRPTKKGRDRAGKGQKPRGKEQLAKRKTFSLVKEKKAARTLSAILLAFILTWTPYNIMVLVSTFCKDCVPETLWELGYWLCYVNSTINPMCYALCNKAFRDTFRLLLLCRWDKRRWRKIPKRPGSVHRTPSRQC
As to the kind of experiment: FLIPR intracellular calcium assay for modulator activity at the muscarinic M1 receptor in CHO human M1 cells. It is filed as cell-based.
Conditions: not given
How it is done: The assay study the effect of several concentrations of test compounds on basal or acetylcholine-stimulated Ca^2+ levels using FLIPR.
The cell plate and the diluted compounds (1% DMSO final concentration) are placed on the platform of the FLIPR and the door closed. A signal test to check background fluorescence and basal fluorescence signal is performed. Laser intensity is adjusted if necessary. Two minutes preincubation with the diluted test compounds is provide to determine any agonist activity on the M1 receptor by comparison to 30 nM Acetylcholine control. In order to determine any modulator activity the diluted compounds were added to cells and after two minutes preincubation, the EC20 of acetylcholine is added followed by another two minutes preincubation before the measurement of intracellular Ca^2+ with a FLIPR (Molecular Devices).
(Calcium flux is commonly read through the fluorescence of an indicator in the cells.)
One may read the IC50 as the concentration at which inhibition is half-maximal. Turning to `COC(C)C1N=C(c2ccccc2)c2cc(Cl)ccc2NC1=S` (centres unmarked) [Example 38, 7-chloro-3-(1-methoxyethyl)-5-phenyl-1,3-dihydro-1,4-benzodiazepine-2-thione], the IC50 was 354 nM.
For the molecule `CC1N=C(c2ccccc2)c2ccccc2NC1=S` (centres unmarked) [Example 41, 3-methyl-5-phenyl-1,3-dihydro-1,4-benzodiazepine-2-thione], the IC50 stood at 552 nM.
As for `Fc1ccccc1C1=N[C@H](C(F)(F)F)C(=S)Nc2ccc(Cl)cc21` [Example 11, (3R)-7-chloro-5-(2-fluorophenyl)-3-(trifluoromethyl)-1,3-dihydro-1,4-benzodiazepine-2-thione], the IC50 was found to be 622 nM.
The same measure, in the same setting: in the case of `CSCC[C@@H]1N=C(c2ccccc2)c2cc(Cl)ccc2NC1=S` [Example 33, (3S)-7-chloro-3-(2-methylsulfanylethyl)-5-phenyl-1,3-dihydro-1,4-benzodiazepine-2-thione] it was 1200 nM.
The same measure, in the same setting: in the case of `CC(C)[C@H]1N=C(c2ccccc2F)c2cc(Cl)ccc2NC1=S` [Example 34, (3R)-7-chloro-5-(2-fluorophenyl)-3-isopropyl-1,3-dihydro-1,4-benzodiazepine-2-thione] it was 420 nM; in that of `CC(C)[C@@H]1N=C(c2ccccc2)c2cc(OC(F)(F)F)ccc2NC1=S` [Example 25, (3S)-3-isopropyl-5-phenyl-7-(trifluoromethoxy)-1,3-dihydro-1,4-benzodiazepine-2-thione], 232 nM.
For the molecule `CC(C)C[C@@H]1N=C(c2ccccc2F)c2cc(Cl)ccc2NC1=S` [Example 27, (3S)-7-Chloro-5-(2-fluorophenyl)-3-isobutyl-1,3-dihydro-1,4-benzodiazepine-2-thione], the IC50 was found to be 641 nM.
In the case of `COc1ccc2c(c1)C(c1ccccc1)=N[C@@H](C(C)C)C(=S)N2` [Example 40, (3S)-3-isopropyl-7-methoxy-5-phenyl-1,3-dihydro-1,4-benzodiazepine-2-thione], the IC50 was 559 nM.
On to `CCC1N=C(c2ccccc2F)c2cc(N)ccc2NC1=S` (centres unmarked) [Example 37, 7-amino-3-ethyl-5-(2-fluorophenyl)-1,3-dihydro-1,4-benzodiazepine-2-thione], for which the IC50 was 6060 nM.
For the molecule `CC(C)[C@@H]1N=C(c2ccccc2)c2cc(-c3ccccc3)ccc2NC1=S` [Example 19, (3S)-3-isopropyl-5,7-diphenyl-1,3-dihydro-1,4-benzodiazepine-2-thione], the IC50 is 1470 nM.
As for `S=C1Nc2ccc(Cl)cc2C(c2ccccc2Cl)=NC1CC1CC1` (centres unmarked) [Example X2, 7-chloro-5-(2-chlorophenyl)-3-(cyclopropylmethyl)-1H-benzo[e][1,4]diazepine-2(3H)-thione], the “activity at M1 receptor” value is reported as “no activity”.
With `Cc1ccc2c(c1)C(c1ccccc1F)=N[C@@H](C(C)C)C(=S)N2` [Example 13, (3S)-5-(2-fluorophenyl)-3-isopropyl-7-methyl-1,3-dihydro-1,4-benzodiazepine-2-thione], the IC50 is 62 nM.
Still for that read-out and setting: in the case of `CCC[C@@H]1N=C(c2ccccc2)c2cc(Cl)ccc2NC1=S` [Example 7, (3S)-7-chloro-5-phenyl-3-propyl-1,3-dihydro-1,4-benzodiazepine-2-thione] it was 187 nM.
On to `CC(C)C[C@@H]1N=C(c2ccccc2)c2cc(Cl)ccc2NC1=S` [Example 36, (S)-7-Chloro-3-isobutyl-5-phenyl-1,3-dihydro-benzo[e][1,4]diazepine-2-thione], for which the IC50 is 317 nM.
In the case of `CSCC[C@H]1N=C(c2ccccc2)c2cc(Cl)ccc2NC1=S` [Example 9, (3R)-7-chloro-3-(2-methylsulfanylethyl)-5-phenyl-1,3-dihydro-1,4-benzodiazepine-2-thione], the IC50 came out at 504 nM.
For the molecule `S=C1Nc2ccc(Cl)cc2C(c2ccccc2Cl)=NC1Cc1ccccc1` (centres unmarked) [Example X1, 3-Benzyl-7-chloro-5-(2-chloro-phenyl)-1,3-dihydro-benzo[1,4]diazepine-2-thione], the “activity at M1 receptor” value is recorded as “no activity”.
`CCC[C@]1(C)N=C(c2ccccc2)c2cc(Cl)ccc2NC1=S` [Example 6, (3S)-7-chloro-3-methyl-5-phenyl-3-propyl-1H-1,4-benzodiazepine-2-thione]: the IC50 was 104 nM.
In the case of `CC(C)[C@H]1N=C(c2ccccc2)c2cc(Cl)ccc2NC1=S` [Example 35, (3R)-7-chloro-3-isopropyl-5-phenyl-1,3-dihydro-1,4-benzodiazepine-2-thione], the IC50 worked out at 521 nM.
On to `S=C1Nc2ccc(Cl)cc2C(c2ccccc2)=N[C@H]1CC1CC1` [Example 3, (3S)-7-chloro-3-(cyclopropylmethyl)-5-phenyl-1,3-dihydro-1,4-benzodiazepine-2-thione], for which the IC50 stood at 311 nM.
With `FC(F)(F)C[C@@H]1N=C(c2ccccc2)c2cc(Cl)ccc2NC1=S` [Example 8, (3S)-7-chloro-5-phenyl-3-(2,2,2-trifluoroethyl)-1,3-dihydro-1,4-benzodiazepine-2-thione], the IC50 was determined as 238 nM.
On the same count and under the same terms, in the case of `CC1N=C(c2ccccc2)c2cc([N+](=O)[O-])ccc2NC1=S` (centres unmarked) [Example 12, 3-methyl-7-nitro-5-phenyl-1,3-dihydro-1,4-benzodiazepine-2-thione] it was 732 nM; in that of `CC(C)[C@@H]1N=C(c2cccnc2)c2cc(Br)ccc2NC1=S` [Example 32, (3S)-7-bromo-3-isopropyl-5-(3-pyridyl)-1,3-dihydro-1,4-benzodiazepine-2-thione], 275 nM.
In the case of `CCC1CN(c2ccccc2)c2cc(Cl)ccc2NC1=S` (centres unmarked) [Example 42], the IC50 is 50 nM.
Consider `CC(C)[C@@H]1N=C(c2ccccn2)c2cc(Br)ccc2NC1=S` [Example 2, (3S)-7-bromo-3-propan-2-yl-5-pyridin-2-yl-1,3-dihydro-1,4-benzodiazepine-2-thione], for which the IC50 is 289 nM.
`Fc1ccccc1C1=N[C@@H](c2ccccc2)C(=S)Nc2ccc(Cl)cc21` [Example 29, (3S)-7-Chloro-5-(2-fluorophenyl)-3-phenyl-1,3-dihydro-1,4-benzodiazepine-2-thione]: the IC50 was 1470 nM.
On the same count and under the same terms, in the case of `Fc1ccccc1C1=N[C@@H](C(F)(F)F)C(=S)Nc2ccc(Cl)cc21` [Example 10, (3S)-7-chloro-5-(2-fluorophenyl)-3-(trifluoromethyl)-1,3-dihydro-1,4-benzodiazepine-2-thione] it was 610 nM; in that of `CC(C)[C@@H]1N=C(c2ccccc2)c2cc(Cl)ccc2NC1=S` [Example 16, (3S)-7-chloro-3-isopropyl-5-phenyl-1,3-dihydro-1,4-benzodiazepine-2-thione], 70 nM.
As to `CC[C@@H]1N=C(c2ccccc2)c2cc(Cl)ccc2NC1=S` [Example 4, (3S)-7-chloro-3-ethyl-5-phenyl-1,3-dihydro-1,4-benzodiazepine-2-thione], the IC50 stood at 103 nM.
On the same count and under the same terms, in the case of `S=C1Nc2ccc(Cl)cc2C(c2ccccc2)=N[C@H]1C1CC1` [Example 24, (3S)-7-chloro-3-cyclopropyl-5-phenyl-1,3-dihydro-1,4-benzodiazepine-2-thione] it was 165 nM.
Regarding `CC(C)(O)C1N=C(c2ccccc2)c2cc(Cl)ccc2NC1=S` (centres unmarked) [Example 26, 7-chloro-3-(1-hydroxy-1-methyl-ethyl)-5-phenyl-1,3-dihydro-1,4-benzodiazepine-2-thione], the IC50 was 1850 nM.
The same measure, in the same setting: in the case of `CC(C)[C@@H]1N=C(c2ccccc2)c2cc(C(F)(F)F)ccc2NC1=S` [Example 18, (3S)-3-isopropyl-5-phenyl-7-(trifluoromethyl)-1,3-dihydro-1,4-benzodiazepine-2-thione] it was 71 nM; in that of `CC(C)[C@@H]1N=C(c2cccc(Cl)c2)c2cc(Cl)ccc2NC1=S` [Example 22, (3S)-7-chloro-5-(3-chlorophenyl)-3-isopropyl-1,3-dihydro-1,4-benzodiazepine-2-thione], 172 nM.
On to `S=C1Nc2ccc(Cl)cc2C(c2ccccc2)=NC1c1ccccc1` (centres unmarked) [Example 31, 7-chloro-3,5-diphenyl-1,3-dihydro-1,4-benzodiazepine-2-thione], for which the IC50 came out at 799 nM.
As to `S=C1Nc2ccc(Cl)cc2C(c2ccccc2)=N[C@@H]1Cc1ccccc1` (single isomer, unassigned) [Example 21], the IC50 was 1140 nM.
`FC(F)(F)c1ccc2c(c1)C(C1CCCCC1)=NCC(=S)N2` [Example 20, 5-cyclohexyl-7-(trifluoromethyl)-1,3-dihydro-1,4-benzodiazepine-2-thione]: the half-maximal inhibitory concentration (IC50) is 1950 nM.

Still in this experiment, the particulars now being: CHO human M1, with EC20 of acetylcholine, FLIPR; read-out: IC50 value hM1 (converted).
In the case of `CC(C)[C@@H]1N=C(C2CCCCC2)c2cc(Cl)ccc2NC1=S` [Example 39, (3S)-7-chloro-5-cyclohexyl-3-isopropyl-1,3-dihydro-1,4-benzodiazepine-2-thione], the IC50 was 414 nM.
On the same count and under the same terms, in the case of `CC(C)[C@@H]1N=C(c2ccc(F)cc2)c2cc(OC(F)(F)F)ccc2NC1=S` [Example 1, (3S)-5-(4-fluorophenyl)-3-isopropyl-7-(trifluoromethoxy)-1,3-dihydro-1,4-benzodiazepine-2-thione] it was 312 nM; in that of `CCCC1=NCC(=S)Nc2ccc(Cl)cc21` [Example 17, 7-chloro-5-propyl-1,3-dihydro-1,4-benzodiazepine-2-thione], 1280 nM.

Values taken from patent publication US11021448B2, “1,3-dihydro-1,4-benzodiazepine-2-thiones for the treatment of CNS related diseases” (priority 2016, dated 2021).
